# Reference: ChEMBL document CHEMBL1139080, “3-Mercaptopropionic acids as efficacious inhibitors of activated thrombin activatable fibrinolysis inhibitor (TAFIa)” (Bioorg Med Chem Lett, 2007)
# Columns and labels:
# Carboxypeptidase B = biological target: T1, Carboxypeptidase B (Sus scrofa, UniProt P09955); assay: Inhibition of porcine pancreatic carboxypeptidase B
# T1 sequence (P09955 whole entry): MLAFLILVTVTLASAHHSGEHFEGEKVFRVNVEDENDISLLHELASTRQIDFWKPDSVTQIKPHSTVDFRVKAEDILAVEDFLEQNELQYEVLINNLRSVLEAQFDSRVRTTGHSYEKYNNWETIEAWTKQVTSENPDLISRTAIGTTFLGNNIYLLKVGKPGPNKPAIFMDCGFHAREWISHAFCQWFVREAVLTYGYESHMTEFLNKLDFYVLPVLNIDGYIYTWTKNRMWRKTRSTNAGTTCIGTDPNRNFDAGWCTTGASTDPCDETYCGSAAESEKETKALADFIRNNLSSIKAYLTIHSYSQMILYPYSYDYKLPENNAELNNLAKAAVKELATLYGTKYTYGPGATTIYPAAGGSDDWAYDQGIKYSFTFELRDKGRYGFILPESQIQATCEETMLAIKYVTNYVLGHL
# [1] = biological target: T2, Carboxypeptidase N catalytic chain (Homo sapiens, UniProt P15169); assay: Inhibition of human carboxypeptidase N
# T2 sequence (P15169 whole entry): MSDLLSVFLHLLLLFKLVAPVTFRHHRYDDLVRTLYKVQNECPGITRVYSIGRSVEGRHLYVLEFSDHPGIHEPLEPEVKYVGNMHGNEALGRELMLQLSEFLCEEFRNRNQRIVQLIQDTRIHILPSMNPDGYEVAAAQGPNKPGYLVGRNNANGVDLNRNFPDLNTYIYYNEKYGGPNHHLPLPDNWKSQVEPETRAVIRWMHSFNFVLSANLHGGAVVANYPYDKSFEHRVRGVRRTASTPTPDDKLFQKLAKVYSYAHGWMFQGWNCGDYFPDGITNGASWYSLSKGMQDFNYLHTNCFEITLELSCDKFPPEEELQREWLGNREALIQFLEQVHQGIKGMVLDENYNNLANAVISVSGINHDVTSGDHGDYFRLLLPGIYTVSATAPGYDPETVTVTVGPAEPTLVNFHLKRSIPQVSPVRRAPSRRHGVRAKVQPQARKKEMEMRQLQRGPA
# Carboxypeptidase B2 = biological target: T3, Carboxypeptidase B2 (Homo sapiens, UniProt Q96IY4); assay: Inhibition of human activated thrombin activatable fibrinolysis inhibitor
# T3 sequence (Q96IY4 whole entry): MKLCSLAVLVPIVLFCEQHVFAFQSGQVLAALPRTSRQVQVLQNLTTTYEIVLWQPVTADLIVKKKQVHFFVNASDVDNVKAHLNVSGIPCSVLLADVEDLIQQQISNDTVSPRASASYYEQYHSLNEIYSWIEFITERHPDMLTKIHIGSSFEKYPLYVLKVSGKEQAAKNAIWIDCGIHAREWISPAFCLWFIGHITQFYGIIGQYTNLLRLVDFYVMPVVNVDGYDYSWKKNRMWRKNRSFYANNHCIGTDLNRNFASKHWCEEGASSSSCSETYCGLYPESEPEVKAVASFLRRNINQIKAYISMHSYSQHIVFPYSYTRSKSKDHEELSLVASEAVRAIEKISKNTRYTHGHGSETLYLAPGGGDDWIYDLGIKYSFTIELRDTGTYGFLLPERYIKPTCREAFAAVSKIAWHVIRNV
# Plasma = assay: Inhibition of activated thrombin activatable fibrinolysis inhibitor in human plasma assessed as acceleration of clot lysis time; format: functional, cell-free
SMILES,IC50 (Carboxypeptidase B) [nM],IC50 [1] [nM],IC50 (Carboxypeptidase B2) [nM],Activity (Plasma)
Nc1cccc(C(CS)C(=O)O)c1 (stereo not given),> 30000,357,785,–
O=C(O)C(CS)C1CCCNC1 (stereo in doubt; 1e),19000,1750,445,–
N=C(N)Nc1ccc(Cl)c(C(CS)C(=O)O)c1 (stereo not given),4650,4650,11,–
"N=C(N)Nc1cccc(C(CS)C(=O)O)c1 (single isomer, unassigned; (+))",36,8,5,–
N=C(N)N1CCCC(C(CS)C(=O)O)C1 (stereo in doubt; 1b),38,38,45,–
O=C(O)C(CS)C1CCCNC1 (stereo in doubt; 1c),> 30000,> 30000,68,–
O=C(O)C(CS)CC1CCCNC1 (stereo in doubt; 3a),4150,420,92,–
CC(=N)N1CCC(C(CS)C(=O)O)CC1 (stereo not given),1040,29000,5300,–
O=C(O)C(CS)CC1CCCNC1 (stereo in doubt; 3b),1950,> 30000,129,–
N=C(N)Nc1cccc(C(CS)C(=O)O)c1 (racemic) [listing 1 of 2 here],–,–,–,Dose-dependent effect
N=C(N)c1ccc(C(CS)C(=O)O)cc1 (stereo not given),845,1000,905,–
NCC(=O)N1CCC(C(CS)C(=O)O)CC1 (stereo not given),> 30000,4950,7350,–
NC(N)=NCCCC(CS)C(=O)O (stereo not given),10,2,8,–
N=C(N)N1CCC(C(CS)C(=O)O)CC1 (stereo not given),45,3100,1070,–
N=C(N)Nc1cccc(C(CS)C(=O)O)c1 (racemic) [listing 2 of 2 here],137,3,4,–
O=C(O)C(CS)C1CCNCC1 (stereo not given),195,60,37,–
N=C(N)Nc1cccc(C(CS)C(=O)O)c1 (stereo in doubt; (-)2a),1720,1720,3,–
N=C(N)N1CCCC(C(CS)C(=O)O)C1 (stereo in doubt; 1d),3,58,165,–
O=C(O)C(CS)CC1CCNCC1 (stereo not given),29,61,139,–
